This note sets out measurements from US10800774B2, “Heterocyclic inhibitors of ATR kinase” (Board of Regents, The University of Texas System, priority 2017, dated 2020).

Assay [1] has as its target ATR/ATRIP complex (Homo sapiens (Human), UniProt Q13535). The assay is described as follows: ATR/ATRIP enzymatic assay (Caliper-based). As to conditions: FAM-labeled RAD17 peptide, ATP; read-out: ATR/ATRIP Enzyme IC50. Format: biochemical. Here is the method:
Human full-length FLAG-TEV-ATR and His6-ATRIP were co-expressed in HEK293 cells. […] The sample was loaded into a column, and then washed with buffer A three times. Protein was subsequently eluted with 2 ml of buffer B (buffer A+200 μg/ml 3×FLAG peptide).
The ability of new chemical matter to inhibit the ATR catalytic activity in this ATR/ATRIP complex was assessed using a Caliper-based assay. A 2× enzyme solution (i.e., 4 nM enzyme) was prepared using 1× Kinase Reaction Buffer (25 mM HEPES pH 8, 0.0055% Brij-35, 10 mM MnCl2, and 1 mM DTT). […] 10 μL of the 2× enzyme solution was transferred to an assay plate containing 60 nL of test compound (from a 3× serial dilution) in 100% DMSO. Following a 30 minute incubation at 28° C., 10 μL of the 2× peptide solution was then transferred to the same assay plate. The reaction was allowed to incubate at 28° C. for 6 hours. After adding […] of stop buffer (100 mM HEPES pH 7.5, 0.015% Brij-35, 0.2% Coating-3 Reagent (PerkinElmer, catalog # PN760050), and 50 mM EDTA), data were collected on a Caliper instrument. Conversion values were converted to inhibition values via the following equation: % inhibition=(max−conversion)/(max−min)*100, whereby “max” corresponds to the DMSO control and “min” corresponds to the low control. IC50 values were calculated using the following equation in XLFit: Y=Bottom+(Top−Bottom)/1+(IC50/X)^HillSlope).

In assay [2] the test system is ATR-driven phosphorylation of Chk1 kinase at Serine 345 in HT-29 cells. The assay is described as follows: pCHK1 cellular assay (CHK1 p-Ser345 AlphaScreen SureFire). As to conditions: Homo sapiens, HT-29, read-out: pCHK1 Cell IC50. A general note: Alpha assays give light when donor and acceptor beads are brought close together.
Experimental: The microplate was incubated overnight (approximately 20 hours) at 37° C. with 5% CO2 and ambient 02. Stock solutions of the test compounds were prepared in 100% DMSO (Sigma, Catalog # D2650) and serially diluted 1:3 using 100% DMSO. Compounds were additionally diluted 1:33 in culture medium, and 10 ul/well were transferred to the tissue culture plate. Following the compound addition the microplate was incubated at 37° C. for 90 minutes. […] The cells were then washed with PBS and lysed using 10 uL/well […] ® Kit lysis buffer diluted to 1× in water (PerkinElmer Catalog # TGRCHK1S50K), with mixing on an orbital shaker at 500 rpm for 20 min at RT. Lysates were frozen at −20° C. overnight.
The pCHK1 ALPHASCREEN® signal was measured using an ENVISION® plate reader (PerkinElmer). IC50 values were calculated using a four-parameter logistic curve fit using Genedata Screener software. Percent of control for each compound concentration was calculated by the following formula: 100*(Compound-Min)/(Max-Min) where “Max” is the high control, DMSO, and “Min” is the low control, 5 uM ATR inhibitor.

ATR/ATRIP complex, sequence (Q13535 whole entry): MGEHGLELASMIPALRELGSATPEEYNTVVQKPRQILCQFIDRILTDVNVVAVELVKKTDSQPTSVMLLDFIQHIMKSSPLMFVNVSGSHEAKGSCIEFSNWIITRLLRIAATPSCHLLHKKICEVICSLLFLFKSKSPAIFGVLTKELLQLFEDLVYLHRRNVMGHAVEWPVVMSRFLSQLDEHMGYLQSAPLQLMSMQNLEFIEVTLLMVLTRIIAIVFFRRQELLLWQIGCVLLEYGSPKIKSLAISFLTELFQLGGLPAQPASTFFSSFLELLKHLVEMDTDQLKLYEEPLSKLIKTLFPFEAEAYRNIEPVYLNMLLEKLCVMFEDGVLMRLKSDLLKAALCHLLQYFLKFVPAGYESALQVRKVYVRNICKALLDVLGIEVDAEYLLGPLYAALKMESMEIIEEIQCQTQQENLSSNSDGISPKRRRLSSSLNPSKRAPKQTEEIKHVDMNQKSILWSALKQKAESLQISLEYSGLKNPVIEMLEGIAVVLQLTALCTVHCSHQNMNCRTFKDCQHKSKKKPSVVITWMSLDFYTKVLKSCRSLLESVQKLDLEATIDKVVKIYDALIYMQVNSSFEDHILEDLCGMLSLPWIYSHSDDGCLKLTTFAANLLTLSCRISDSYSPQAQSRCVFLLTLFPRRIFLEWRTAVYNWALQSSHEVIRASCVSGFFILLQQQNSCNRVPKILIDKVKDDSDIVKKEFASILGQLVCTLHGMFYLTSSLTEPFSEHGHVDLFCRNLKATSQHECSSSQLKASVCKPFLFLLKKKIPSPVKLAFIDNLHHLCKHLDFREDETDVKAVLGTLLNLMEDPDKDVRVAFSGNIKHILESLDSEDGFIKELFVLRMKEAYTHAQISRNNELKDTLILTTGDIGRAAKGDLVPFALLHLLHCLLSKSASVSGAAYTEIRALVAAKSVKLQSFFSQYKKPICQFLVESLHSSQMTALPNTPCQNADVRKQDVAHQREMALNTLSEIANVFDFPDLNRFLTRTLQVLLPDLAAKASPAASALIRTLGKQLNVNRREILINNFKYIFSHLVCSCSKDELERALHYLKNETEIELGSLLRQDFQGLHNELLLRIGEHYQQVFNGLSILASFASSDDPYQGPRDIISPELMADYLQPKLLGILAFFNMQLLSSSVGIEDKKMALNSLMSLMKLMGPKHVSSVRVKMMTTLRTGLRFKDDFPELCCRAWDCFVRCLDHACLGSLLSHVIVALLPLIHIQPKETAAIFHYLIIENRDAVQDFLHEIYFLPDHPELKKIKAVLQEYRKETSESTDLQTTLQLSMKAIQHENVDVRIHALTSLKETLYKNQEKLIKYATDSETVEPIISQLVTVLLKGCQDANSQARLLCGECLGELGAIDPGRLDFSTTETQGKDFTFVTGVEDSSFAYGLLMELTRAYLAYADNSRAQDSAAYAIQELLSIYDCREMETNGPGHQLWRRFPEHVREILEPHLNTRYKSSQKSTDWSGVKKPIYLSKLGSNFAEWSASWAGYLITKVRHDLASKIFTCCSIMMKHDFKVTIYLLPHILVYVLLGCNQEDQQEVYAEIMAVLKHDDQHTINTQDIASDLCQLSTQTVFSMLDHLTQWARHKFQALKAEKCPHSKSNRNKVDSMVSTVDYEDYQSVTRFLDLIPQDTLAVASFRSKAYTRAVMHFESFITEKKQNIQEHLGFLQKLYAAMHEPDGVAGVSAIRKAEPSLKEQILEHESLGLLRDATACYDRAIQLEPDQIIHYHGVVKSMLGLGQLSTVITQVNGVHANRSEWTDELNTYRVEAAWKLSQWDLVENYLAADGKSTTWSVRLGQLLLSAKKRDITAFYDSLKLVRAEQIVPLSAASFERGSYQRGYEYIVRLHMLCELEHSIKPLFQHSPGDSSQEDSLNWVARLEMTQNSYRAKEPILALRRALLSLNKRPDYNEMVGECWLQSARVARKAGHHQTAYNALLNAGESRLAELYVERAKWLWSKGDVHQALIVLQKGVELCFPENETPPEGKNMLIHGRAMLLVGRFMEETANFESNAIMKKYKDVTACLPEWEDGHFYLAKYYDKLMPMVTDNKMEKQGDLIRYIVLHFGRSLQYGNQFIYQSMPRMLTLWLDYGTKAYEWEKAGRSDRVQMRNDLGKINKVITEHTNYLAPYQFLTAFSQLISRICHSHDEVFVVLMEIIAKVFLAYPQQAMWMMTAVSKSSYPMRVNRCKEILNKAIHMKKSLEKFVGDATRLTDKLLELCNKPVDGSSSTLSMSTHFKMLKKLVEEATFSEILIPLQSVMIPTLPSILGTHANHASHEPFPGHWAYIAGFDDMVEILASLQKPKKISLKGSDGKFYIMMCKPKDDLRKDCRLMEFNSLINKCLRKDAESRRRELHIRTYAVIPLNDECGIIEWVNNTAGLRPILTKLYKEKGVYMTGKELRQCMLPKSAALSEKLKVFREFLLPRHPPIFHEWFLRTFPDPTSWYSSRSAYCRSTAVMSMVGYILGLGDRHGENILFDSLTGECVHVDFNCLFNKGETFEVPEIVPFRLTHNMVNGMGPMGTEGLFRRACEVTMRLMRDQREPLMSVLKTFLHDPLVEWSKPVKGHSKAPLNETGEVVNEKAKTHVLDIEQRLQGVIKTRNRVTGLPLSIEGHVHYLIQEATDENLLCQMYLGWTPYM
ATR/ATRIP complex, sequence (Q8WXE1 whole entry partner): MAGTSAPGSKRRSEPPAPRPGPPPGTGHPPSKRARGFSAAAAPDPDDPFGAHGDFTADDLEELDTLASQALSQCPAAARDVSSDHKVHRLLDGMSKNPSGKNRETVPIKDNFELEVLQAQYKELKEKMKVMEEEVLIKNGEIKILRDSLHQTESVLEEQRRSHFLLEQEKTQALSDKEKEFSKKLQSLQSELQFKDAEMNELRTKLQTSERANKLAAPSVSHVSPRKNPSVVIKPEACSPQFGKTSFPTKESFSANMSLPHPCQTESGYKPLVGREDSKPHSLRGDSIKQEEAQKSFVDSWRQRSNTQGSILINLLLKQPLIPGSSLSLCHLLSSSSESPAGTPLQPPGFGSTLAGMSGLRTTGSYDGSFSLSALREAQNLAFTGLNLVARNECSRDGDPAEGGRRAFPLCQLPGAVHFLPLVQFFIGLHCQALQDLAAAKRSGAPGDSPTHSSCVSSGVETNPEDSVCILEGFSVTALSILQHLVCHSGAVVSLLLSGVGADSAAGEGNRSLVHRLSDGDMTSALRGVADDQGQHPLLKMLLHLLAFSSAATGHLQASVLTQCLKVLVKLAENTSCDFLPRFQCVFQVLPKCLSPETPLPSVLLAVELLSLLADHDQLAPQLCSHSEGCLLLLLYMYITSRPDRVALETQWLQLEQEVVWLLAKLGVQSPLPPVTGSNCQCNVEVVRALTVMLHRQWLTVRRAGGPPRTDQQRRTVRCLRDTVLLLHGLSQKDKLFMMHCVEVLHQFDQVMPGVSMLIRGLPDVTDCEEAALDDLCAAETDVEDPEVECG

As for `COC(=O)N1CCC(c2cc(N3CCOC[C@H]3C)nc(-c3ccnc4[nH]ccc34)n2)C1` (stereo partly drawn) [Example 17, Methyl 3-{6-[(3R)-3-methylmorpholin-4-yl]-2-{1H-pyrrolo[2,3-b]pyridin-4-yl}pyrimidin-4-yl}-pyrrolidine-1-carboxylate], the IC50 in assay [1] is 10 nM; in assay [2], 138 nM.

As to `C[C@@H]1COCCN1c1cc(C2CCCCS2(=O)=O)nc(-c2ccnc3[nH]ccc23)n1` (stereo partly drawn) [Example 26, 2-{6-[(3R)-3-Methyl-morpholin-4-yl]-2-{1H-pyrrolo[2,3-b]pyridin-4-yl}pyrimidin-4-yl}-1λ^6-thiane-1,1-dione], the IC50 in assay [1] was 8 nM; in assay [2], 86 nM.

In the case of `COC(=O)N1CCC(c2cc(N3CCOC[C@H]3C)nc(-c3ccnc4[nH]ccc34)n2)CC1` [Example 13, Methyl 4-{6-[(3R)-3-methylmorpholin-4-yl]-2-{1H-pyrrolo[2,3-b]pyridin-4-yl}pyrimidin-4-yl}piperidine-1-carboxylate], the figures for the IC50 in assay [1] and in assay [2] were 10 nM and 186 nM, respectively.

`C[C@@H]1COCCN1c1cc(C2CCCS2(=O)=O)nc(-c2cc(Cl)nc3[nH]ccc23)n1` (single isomer, unassigned) [Example 5a]: the IC50 in assay [1] was 31 nM; in assay [2] it was 177 nM.

Take `CCN1CCCN(c2cc(N3CCOC[C@H]3C)nc(-c3ccnc4[nH]ccc34)n2)S1(=O)=O` [Example 1, (R)-2-Ethyl-6-(6-(3-methylmorpholino)-2-(1H-pyrrolo[2,3-b]pyridin-4-yl)pyrimidin-4-yl)-1,2,6-thiadiazinane 1,1-dioxide]: the IC50 in assay [1] came out at 7 nM; in assay [2] it was 95 nM.

For the compound `C[C@@H]1COCCN1c1cc([C@]2(C)CCCS2(=O)=O)nc(-c2ccnc3[nH]ccc23)n1` [Example 30a, (S)-2-methyl-2-(6-((R)-3-methylmorpholino)-2-(1H-pyrrolo[2,3-b]pyridin-4-yl)pyrimidin-4-yl)tetrahydrothiophene 1,1-dioxide], the IC50 in assay [1] was found to be 6 nM; in assay [2] it was 76 nM.

Take `CCC(=O)N1CCC(c2cc(N3CCOC[C@H]3C)nc(-c3ccnc4[nH]ccc34)n2)CC1` [Example 20, 1-(4-{6-[(3R)-3-Methylmorpholin-4-yl]-2-{1H-pyrrolo[2,3-b]pyridin-4-yl}pyrimidin-4-yl}piperidin-1-yl) propan-1-one]: the IC50 in assay [1] was found to be 15 nM; in assay [2] it was 51 nM.

Turning to `CC(=O)N1CCCC(c2cc(N3CCOC[C@H]3C)nc(-c3ccnc4[nH]ccc34)n2)C1` (stereo partly drawn) [Example 15, 1-(3-{6-[(3R)-3-Methylmorpholin-4-yl]-2-{1H-pyrrolo[2,3-b]pyridin-4-yl}pyrimidin-4-yl}piperidin-1-yl) ethan-1-one], the IC50 in assay [1] turned out to be 10 nM; in assay [2] it was 210 nM.

For the compound `CCN1CCCN(c2cc(N3CCOC[C@H]3C)nc(-c3cc(Cl)nc4[nH]ccc34)n2)S1(=O)=O` [Example 9, 2-(2-{6-Chloro-1H-pyrrolo[2,3-b]pyridin-4-yl}-6-[(3R)-3-methylmorpholin-4-yl]pyrimidin-4-yl)-6-ethyl-1λ^6,2,6-thiadiazinane-1,1-dione], the IC50 in assay [1] was determined as 115 nM; in assay [2], 570 nM.

In the case of `CC(=O)N1CCC(c2cc(N3CCOC[C@H]3C)nc(-c3ccnc4[nH]ccc34)n2)CC1` [Example 12, 1-(4-{6-[(3R)-3-Methylmorpholin-4-yl]-2-{1H-pyrrolo[2,3-b]pyridin-4-yl}pyrimidin-4-yl}piperidin-1-yl) ethan-1-one], the IC50 in assay [1] turned out to be 24 nM; in assay [2] it was 128 nM.

Consider `C[C@@H]1COCCN1c1cc(C2CCN(C(=O)CC3CC3)CC2)nc(-c2ccnc3[nH]ccc23)n1` [Example 25, 2-Cyclopropyl-1-(4-{6-[(3R)-3-methylmorpholin-4-yl]-2-{1H-pyrrolo[2,3-b]pyridin-4-yl}pyrimidin-4-yl}piperidin-1-yl) ethan-1-one], for which the IC50 in assay [1] amounted to 16 nM; in assay [2], 139 nM.

Regarding `COCC(=O)N1CCC(c2cc(N3CCOC[C@H]3C)nc(-c3ccnc4[nH]ccc34)n2)CC1` [Example 24, 2-Methoxy-1-(4-{6-[(3R)-3-methylmorpholin-4-yl]-2-{1H-pyrrolo[2,3-b]pyridin-4-yl}pyrimidin-4-yl}piperidin-1-yl) ethan-1-one], the IC50 in assay [1] worked out at 13 nM; in assay [2] it was 85 nM.

Take `C[C@@H]1COCCN1c1cc(C2CCN(C(=O)OCC3CC3)CC2)nc(-c2ccnc3[nH]ccc23)n1` [Example 28, Cyclopropylmethyl 4-{6-[(3R)-3-methylmorpholin-4-yl]-2-{1H-pyrrolo[2,3-b]-pyridin-4-yl}pyrimidin-4-yl}piperidine-1-carboxylate]: the IC50 in assay [1] was determined as 17 nM; in assay [2], 270 nM.

Consider `C[C@@H]1COCCN1c1cc(C2CCCN(S(C)(=O)=O)C2)nc(-c2ccnc3[nH]ccc23)n1` (stereo partly drawn) [Example 10, (3R)-4-[6-(1-Methane-sulfonylpiperidin-3-yl)-2-{1H-pyrrolo[2,3-b]pyridin-4-yl}pyrimidin-4-yl]-3-methylmorpholine], for which the IC50 worked out at 7 nM in assay [1] and 134 nM in assay [2].

Consider `C[C@@H]1COCCN1c1cc(C2(C)CCCS2(=O)=O)nc(-c2ccnc3[nH]ccc23)n1` (stereo partly drawn) [Example 29, 2-Methyl-2-(6-((R)-3-methylmorpholino)-2-(1H-pyrrolo[2,3-b]pyridin-4-yl)pyrimidin-4-yl)tetrahydrothiophene 1,1-dioxide], for which the IC50 in assay [1] was found to be 8 nM; in assay [2], 89 nM.

In the case of `C[C@@H]1COCCN1c1cc(C2CCN(S(=O)(=O)C3CC3)CC2)nc(-c2ccnc3[nH]ccc23)n1` [Example 23, (3R)-4-{6-[1-(Cyclopropane-sulfonyl)piperidin-4-yl]-2-{1H-pyrrolo[2,3-b]pyridin-4-yl}pyrimidin-4-yl}-3-methylmorpholine], the results for the IC50 in assay [1] and in assay [2] were 5 nM and 21 nM, respectively.

As for `C[C@@H]1COCCN1c1cc([C@@]2(C)CCCS2(=O)=O)nc(-c2ccnc3[nH]ccc23)n1` [Example 30b, (R)-2-methyl-2-(6-((R)-3-methylmorpholino)-2-(1H-pyrrolo[2,3-b]pyridin-4-yl)pyrimidin-4-yl)tetrahydrothiophene 1,1-dioxide], the IC50 stood at 6 nM in assay [1] and 106 nM in assay [2].

Take `CC(C)N1CCCN(c2cc(N3CCOC[C@H]3C)nc(-c3ccnc4[nH]ccc34)n2)S1(=O)=O` [Example 8, 2-{6-[(3R)-3-Methylmorpholin-4-yl]-2-{1H-pyrrolo[2,3-b]pyridin-4-yl}pyrimidin-4-yl}-6-(propan-2-yl)-1λ^6,2,6-thiadiazinane-1,1-dione]: the IC50 in assay [1] was determined as 7 nM; in assay [2] it was 301 nM.

Turning to `C[C@@H]1COCCN1c1cc(C2CCN(C)C2=O)nc(-c2ccnc3[nH]ccc23)n1` (stereo partly drawn) [Example 3, 1-Methyl-3-(6-((R)-3-methylmorpholino)-2-(1H-pyrrolo[2,3-b]pyridin-4-yl)pyrimidin-4-yl)pyrrolidin-2-one], the values for the IC50 in assay [1] and in assay [2] were 48 nM and 496 nM, respectively.

With `CCOC(=O)N1CCC(c2cc(N3CCOC[C@H]3C)nc(-c3ccnc4[nH]ccc34)n2)CC1` [Example 22, Ethyl 4-{6-[(3R)-3-methylmorpholin-4-yl]-2-{1H-pyrrolo[2,3-b]pyridin-4-yl}pyrimidin-4-yl} piperidine-1-carboxylate], the IC50 in assay [1] was 15 nM; in assay [2], 109 nM.

As for `C[C@@H]1COCCN1c1cc([C@H]2CCCS2(=O)=O)nc(-c2cc(Cl)nc3[nH]ccc23)n1` (single isomer, unassigned) [Example 5b], the figures for the IC50 in assay [1] and in assay [2] were 72 nM and 435 nM, respectively.

Regarding `C[C@@H]1COCCN1c1cc(C2CCN(S(C)(=O)=O)C2)nc(-c2ccnc3[nH]ccc23)n1` (stereo partly drawn) [Example 11, (3R)-4-[6-(1-Methane-sulfonylpyrrolidin-3-yl)-2-{1H-pyrrolo[2,3-b]pyridin-4-yl}pyrimidin-4-yl]-3-methylmorpholine], the IC50 in assay [1] was 8 nM; in assay [2], 97 nM.

Consider `CNC(=O)N1CCC(c2cc(N3CCOC[C@H]3C)nc(-c3ccnc4[nH]ccc34)n2)C1` (stereo partly drawn) [Example 18, N-methyl-3-{6-[(3R)-3-methylmorpholin-4-yl]-2-{1H-pyrrolo[2,3-b]pyridin-4-yl}pyrimidin-4-yl}-pyrrolidine-1-carboxamide], for which the IC50 stood at 14 nM in assay [1] and 191 nM in assay [2].

As to `C[C@@H]1COCCN1c1cc(N2CCCN(C)S2(=O)=O)nc(-c2cc(Cl)nc3[nH]ccc23)n1` [Example 6, (R)-2-(2-(6-Chloro-1H-pyrrolo[2,3-b]pyridin-4-yl)-6-(3-methylmorpholino)pyrimidin-4-yl)-6-methyl-1,2,6-thiadiazinane 1,1-dioxide], the IC50 worked out at 52 nM in assay [1] and 505 nM in assay [2].

Take `C[C@@H]1COCCN1c1cc(C2CCOCC2)nc(-c2ccnc3[nH]ccc23)n1` [Example 14, (3R)-3-Methyl-4-[6-(oxan-4-yl)-2-{1H-pyrrolo[2,3-b]-pyridin-4-yl}pyrimidin-4-yl]-morpholine]: the IC50 in assay [1] came to 17 nM; in assay [2] it was 166 nM.
